Laboratory results: patent publication US20190322632A1, “HRI ACTIVATORS USEFUL FOR THE TREATMENT OF CARDIOMETABOLIC DISEASES” (UNIVERSITAT DE BARCELONA, priority 2016, published 2019)

What was measured:
Akt = test: Insulin signalling in hepatocytes (insulin-stimulated Akt phosphorylation, immunoblot); type: cell-based, human; conditions: Huh-7 cells, 24 h, 0.75 mmol/L palmitate plus 10 μmol/L compound, 100 nmol/L insulin last 10 min; FIG. 6
Procedure: (B). When indicated (+), cells were incubated with 100 nmol/L insulin (I) for the last 10 min. Data are presented as the mean±SD (n=4 per group). ***p<0.001 and *p<0.05 vs. control cells not exposed to insulin. ^###p<0.001 and ^##p<0.01 vs. insulin-stimulated control cells. ^554 \\p<0.001 vs. insulin-stimulated cells incubated with palmitate. Ins: insulin.
Inventors examined the insulin signalling pathway by measuring insulin-stimulated Akt phosphorylation. Huh-7 cells were incubated for 24 h with BSA (Control, CT), 0.75 mmol/L palmitate (Pal) conjugated with BSA, or 0.75 mmol/L palmitate plus 10 μmol/L BTdCPU (Pal+BTdCPU). Immunoblot analyses of total and phosphorylated Akt was carried out.

FGF21 = FGF21 expression in hepatocytes (quantitative real-time RT-PCR); type: cell-based, human; conditions: Huh-7 hepatocytes, 24 h, 10 μM; FIG. 9
Procedure: Human Huh-7 hepatocytes were incubated for 24 h in the absence (Control, CT) or in the presence of compounds (10 μM). Assessment by quantitative real-time RT-PCR of FGF21. Data are presented as the mean±SD (n=4 per group). ***p<0.001 and **p<0.01 vs CT. ^###p<0.001, ^##p<0.01 and ^#p<0.05 vs BTCtFPU. ^††p<0.01 and ^†p<0.05 vs BTdCPU. BTCtFPU=1-(benzo[d][1,2,3]thiadiazol-6-yl)-3-(4-chloro-3-(trifluoromethyl)phenyl)urea (compound (3) in Chen T. et al., ibid.).

[1] = tested on: mice fed a high-fat diet (HFD); test: Glucose tolerance test in mice fed a high-fat diet; type: in vivo; conditions: HFD three weeks, 70 mg kg^−1 day^−1 i.p. daily for the last week, FIG. 7
Source text: Data are presented as the mean±SD (n=6 per group). *p<0.05 vs. mice fed a standard diet (CT). #p<0.05 vs. mice fed a HFD. G: glucose.
T2DM is characterized by glucose intolerance, which is contributed to by peripheral (muscle, fat, and liver) insulin resistance as well as islet […] dysfunction (cf. Andrikopoulos S. et al., “Evaluating the glucose tolerance test in mice”, Am. J. Physiol. Endocrinol. Metab., 2008, vol. 295, pp. E1323-32). The glucose tolerance test (GTT) is used in clinical practice and research to identify individuals with impaired glucose tolerance by assessing the disposal of a glucose load. It is important to acknowledge that the GTT is the only means of identifying impaired glucose tolerance, which is considered a prediabetic state (cf. Andrikopoulos S. et al., ibid). The standard presentation of results from GTTs is a description of blood glucose levels over time after the glucose administration. Generally, a time course of absolute glucose levels is presented. When using diabetic or insulin-resistant models (such as the HFD-fed mouse), a time course of absolute glucose levels should still be presented along with a calculation of the AUC above baseline glucose. In this assay, the effect of the BTdCPU compound on glucose tolerance in mice fed a high-fat diet (HFD) was examined. […]

mice fed a HFD = test: HFD-induced steatosis in mice (ORO and H&E liver staining, hepatic triglyceride levels); type: in vivo; conditions: HFD three weeks, 70 mg kg^−1 day^−1 i.p. daily for the last week
Source text: FIG. 8. (A) Oil Red O and eosin-hematoxylin (H&E) staining of livers of mice fed a standard chow (CT), a HFD for three weeks (HFD) or a HFD for three weeks plus BTdCPU during the last week (HFD+BTdCPU). (B) Liver triglyceride levels. Data are presented as the mean±SD (n=6 per group). *p<0.05 vs. mice fed a standard diet (CT). ^#p<0.05 vs. mice fed a HFD. G: glucose. TG: triglyceride.
Inventors examined whether the treatment with an HRI activator (BTdCPU) prevented the development of steatosis induced by a HFD. Histological analysis of a liver biopsy remains the gold standard for assessing the degree of steatosis. ORO staining and eosin-hematoxylin (H&E) staining of liver sections were performed. Mice fed a standard chow and half of the mice fed the HFD received one daily i.p. administration of DMSO (vehicle) for the last week. The rest of the mice fed the HFD received one daily i.p. administration of BTdCPU (70 mg kg^−1 day^−1) for the last week. […] Finally, hepatic lipids were extracted and hepatic triglyceride levels were assessed by using a commercially available kit (TR0100, Sigma). […] Overall, these findings indicate that HRI activation prevents HFD-induced steatosis.

human Huh-7 hepatocytes = test: Palmitate-induced triglyceride accumulation in hepatocytes (Oil Red O staining); type: cell-based; conditions: Huh-7 cells, 24 h, 0.75 mmol/L palmitate plus 10 μmol/L compound; FIG. 5
Procedure: To examine the effects of HRI activators on triglyceride accumulation and insulin signaling in hepatocytes, the N,N′-diarylurea BTdCPU was used. HRI is a kinase that phosphorylates eIF2α at its Ser 51 residue to execute protein synthesis regulation and thereby HRI activators cause the phosphorylation of eIF2α as previously described (Chen T. et al., ibid). First, the effect of BTdCPU on human Huh-7 hepatocytes exposed to the saturated fatty acid palmitate was explored. Huh-7 cells were incubated for 24 h with BSA (Control, CT), 0.75 mmol/L palmitate (Pal) conjugated with BSA or 0.75 mmol/L palmitate plus 10 μmol/L BTdCPU (Pal+BTdCPU). Then, they were stained with Oil Red O that allows selective detection of neutral lipids (primarily triglyceride and cholesterol esters) within Huh-7 cells.

With `O=C(Nc1ccc(Cl)c(Cl)c1)Nc1ccc2nnsc2c1` [BTdCPU, 1-(benzo[d][1,2,3]thiadiazol-6-yl)-3-(3,4-dichlorophenyl)urea] the “insulin-stimulated Akt phosphorylation” value (Akt) was “partially restored the reduction in insulin-stimulated Akt phosphorylation caused by palmitate”, the “FGF21 expression compared with BTCtFPU” value (FGF21) was “significant higher increase than compound BTCtFPU” and the “glucose tolerance test AUC above baseline glucose” value [1] was “prevented the increase in the AUC above baseline glucose”. The “hepatic steatosis (ORO and H&E staining)” value (mice fed a HFD; FIG. 8A) was “hepatic steatosis was reversed”, the hepatic triglyceride levels (mice fed a HFD; FIG. 8B) was “increase was completely blunted” and the “palmitate-induced triglyceride accumulation (Oil Red O staining)” value (human Huh-7 hepatocytes) was “accumulation was prevented”.
